Reference: patent US8420654B2 (Eli Lilly and Company, priority 2008, dated 2013)

Tests used:
[1] = system: CYP3A; experiment: Human CYP fingerprinting, ketoconazole inhibitor; format: in vitro ADME; conditions: 4 μM, human liver microsomes, 30 min, ketoconazole 10 μM
Experimental: (§1) CYP fingerprinting is well established technique and is used as an indication of potential risk of drug-drug interactions in the pharmaceutical sciences. Compounds of the present invention may be assayed by well known methods, essentially as follows: Compounds are incubated at 37° C. at a final concentration of 4 μM with pooled, mixed gender, human liver microsomes and 1 mM NADPH ([…]) (final conc.) for 0 and 30 min. without any CYP inhibitor and with each CYP inhibitor in separate incubations for 30 min. Each inhibitor is specific for an individual cytochrome P450. The specific inhibitors used for CYPs 2C9, 2D6 and 3A were sulfaphenazole, quinidine and ketoconazole, respectively. Ketoconazole (CYP3A) is made up at 25 mM in DMSO and then diluted in buffer to a final concetration of 10 μM. Quinidine (CYP2D6) is made up at 5 mM in 50/50 acetonitrile/water and then diluted in buffer to a final concetration of 10 μM. Sulfaphenazole (CYP2C9) is made up at 100 mM in DMSO and then diluted in buffer to a final concetration of 5 μM. Samples are analyzed by LC-MS in positive or negative electrospray mode using a Waters Acquity Ultra Performance LC coupled to a MicroMass Q-T of-2 mass spectrometer.
(§2) Data are analyzed using MetaboLynx™ version 4.1. With inhibitor present, a reduction in metabolite peak area of less than 30% (relative to the uninhibited control incubation) receives a designation of low risk of Drug Drug Interaction (DDI), a reduction in peak area between 30% and 70% receives a moderate risk of DDI and a reduction of more than 70% receives a high risk of DDI.

[2] = target: T1, hCB-2 (Homo sapiens, UniProt P34972); experiment: hCB2-Sf9 antagonist mode SPA GTP-γ-35S binding assay; format: biochemical; conditions: human CB-2 Sf9 membranes, antagonist mode vs methanandamide; read-out: hCB-2 SPA GTPγS Sf9 Membrane Antagonist Kb
T1 construct: purchased Perkin Elmer, Boston, Mass; host or cells: Sf9 insect cells (membranes)
T1 sequence (P34972 whole entry): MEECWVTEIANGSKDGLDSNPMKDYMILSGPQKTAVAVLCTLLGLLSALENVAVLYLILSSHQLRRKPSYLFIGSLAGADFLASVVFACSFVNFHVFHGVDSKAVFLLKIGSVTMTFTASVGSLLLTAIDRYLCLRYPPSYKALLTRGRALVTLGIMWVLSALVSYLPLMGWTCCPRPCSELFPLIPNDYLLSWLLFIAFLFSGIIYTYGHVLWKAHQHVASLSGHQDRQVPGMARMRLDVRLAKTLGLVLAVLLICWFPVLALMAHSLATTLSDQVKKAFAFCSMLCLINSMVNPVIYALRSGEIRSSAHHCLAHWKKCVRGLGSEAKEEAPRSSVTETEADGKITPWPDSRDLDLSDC
Experimental: (§3) Compounds of the present invention may be tested for functional activity at the CB-1 and CB-2 receptors in both agonist and antagonist modes using SPA (Scintillation Proximity Assay) based GTP-γ-^35S binding assays. All assay components are prepared in assay buffer (20 mM HEPES, 100 mM NaCl, 5 mM MgCl2, pH 7.4) at room temperature. Semi-log dilutions of test compound are prepared in assay buffer containing BSA (0.125% final conc.) for the agonist mode assays. For the antagonist mode assays, test compounds are prepared in the same manner but also include an 80% efficacious dose of a full agonist (methanandamide). GTP-γ^35S binding for the antagonist assay may be measured in a 96 well format using a modification of an antibody capture technique previously described. (DeLapp, N W, et al. (1999) J Pharmacol Exp Ther 289:946-955.) The CB-2 receptor agonist activity may be measured using a similar method using hCB2-Sf9 membranes. The CB-1 receptor agonist activity may be measured using a whole membrane capture technique using hCB1-CHO membranes. All incubations are done at room temperature.
hCB1-Sf9 and hCB2-Sf9 antagonist Assays:
hCB1-5f9 and hCB2-5f9 membranes (Perkin Elmer, Boston, Mass.) are prepared essentially as above with 1 μM (final conc.) GDP for hCB1-5f9 and 0.05 μM (final conc.) GDP for hCB2-5f9. The assay is run essentially as described for the CHO membranes above. Diluted membranes are pre-incubated with test compound for 15 min., which is followed by addition of GTP-γ-^35S and a further 35 min. incubation. Nonidet P40 and anti-Gi-antibody are added sequentially with a 15 min. incubation after each addition. The SPA beads are then added, the plates are sealed and vortexed, and then incubated at room temperature for 1 hr.
Data are analyzed as follows: Background is subtracted from all wells. Percent agonist efficacy is determine by normalizing agonist/inverse agonist dose response data to the response obtained for a full agonist (methanandamide). Percent antagonist inhibition is calculated by first normalizing the data to the signal generated by a saturating concentration of the full agonist (methanandamide). Then the data are analyzed using a 4-parameter logistic reduced fit (Activity Base™ and XLFit3™ from IDBS, Emeryville, Calif.). Kb values are determined using a modification of the Cheng-Prusoff relationship: Kb=IC50/(1+[agonist]/EC50), where “IC50” is determined from a four parameter fit of displacement curves, “[agonist]” is the agonist challenge concentration (nM), and “EC50” is determined from a four parameter fit of a full agonist concentration response curve (Cheng and Prusoff 1973). Mean Kb values are calculated as a mean of at least three independent determinations±standard error of the mean (SEM). […]

[3] = target: T2, rCB-1 (Rattus norvegicus, UniProt P20272); experiment: rCB1-CHO antagonist mode SPA GTP-γ-35S binding assay; format: biochemical; conditions: rat CB-1 CHO membranes, antagonist mode vs methanandamide; read-out: rCB-1 SPA GTPγS CHO Membrane Antagonist Kb
T2 construct: purchased Applied Cell Sciences, Rockville, Md; host or cells: CHO cells (membranes)
T2 sequence (P20272 whole entry): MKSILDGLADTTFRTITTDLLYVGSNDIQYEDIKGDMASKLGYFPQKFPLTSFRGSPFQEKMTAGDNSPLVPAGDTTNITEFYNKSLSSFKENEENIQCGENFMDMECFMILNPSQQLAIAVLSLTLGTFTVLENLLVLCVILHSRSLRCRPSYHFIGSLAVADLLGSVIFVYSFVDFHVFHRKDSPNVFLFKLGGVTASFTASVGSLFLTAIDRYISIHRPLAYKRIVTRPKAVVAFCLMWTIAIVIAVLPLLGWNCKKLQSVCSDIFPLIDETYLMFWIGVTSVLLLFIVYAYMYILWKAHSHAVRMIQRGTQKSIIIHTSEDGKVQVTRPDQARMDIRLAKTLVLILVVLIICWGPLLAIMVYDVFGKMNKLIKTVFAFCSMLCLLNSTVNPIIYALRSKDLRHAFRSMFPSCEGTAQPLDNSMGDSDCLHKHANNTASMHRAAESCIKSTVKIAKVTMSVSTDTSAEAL
Experimental: as §3
(§4) hCB1-CHO and rCB1-CHO Antagonist Assays:
hCB1-CHO or rCB1-CHO membranes (Applied Cell Sciences, Rockville, Md.) and GDP (1 μM final) are added to ice cold assay buffer and homogenized. […] Plates are then centrifuged at 700×g for 10 min. and the radioactivity counted.
Data are analyzed as follows: Background is subtracted from all wells. […] Percent antagonist inhibition is calculated by first normalizing the data to the signal generated by a saturating concentration of the full agonist (methanandamide). Then the data are analyzed using a 4-parameter logistic reduced fit (Activity Base™ and XLFit3™ from IDBS, Emeryville, Calif.). Kb values are determined using a modification of the Cheng-Prusoff relationship: Kb=IC50/(1+[agonist]/EC50), where “IC50” is determined from a four parameter fit of displacement curves, “[agonist]” is the agonist challenge concentration (nM), and “EC50” is determined from a four parameter fit of a full agonist concentration response curve (Cheng and Prusoff 1973). […]

[4] = target: T3, CYP2D6 (Homo sapiens, UniProt P10635); experiment: Human CYP fingerprinting, quinidine inhibitor; format: in vitro ADME; conditions: 4 μM, human liver microsomes, 30 min, quinidine 10 μM
T3 construct: pooled, mixed gender, human liver microsomes; from tissue; host or cells: pooled, mixed gender human liver microsomes
T3 sequence (P10635 whole entry): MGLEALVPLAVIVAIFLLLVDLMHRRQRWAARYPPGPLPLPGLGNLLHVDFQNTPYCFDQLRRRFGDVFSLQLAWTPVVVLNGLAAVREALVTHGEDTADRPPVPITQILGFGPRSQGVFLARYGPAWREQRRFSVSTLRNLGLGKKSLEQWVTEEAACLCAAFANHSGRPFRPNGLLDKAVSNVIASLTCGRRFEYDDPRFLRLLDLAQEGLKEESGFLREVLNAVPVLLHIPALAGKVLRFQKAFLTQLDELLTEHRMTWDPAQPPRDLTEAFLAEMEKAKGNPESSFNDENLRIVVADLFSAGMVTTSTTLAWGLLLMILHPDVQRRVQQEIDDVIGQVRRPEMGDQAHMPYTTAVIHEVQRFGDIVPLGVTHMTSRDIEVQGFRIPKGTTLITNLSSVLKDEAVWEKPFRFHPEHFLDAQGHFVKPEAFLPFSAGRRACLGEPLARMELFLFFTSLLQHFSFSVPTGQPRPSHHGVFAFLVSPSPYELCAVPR
Experimental: as §1, §2

[5] = target: T4, hCB-1 (Homo sapiens, UniProt P21554); experiment: hCB1-CHO agonist mode SPA GTP-γ-35S binding assay; format: biochemical; conditions: for EC50: human CB-1 CHO membranes, agonist mode (inverse agonism), read-out: hCB-1 SPA GTPγS CHO Membrane Agonist Relative EC50 inverse; for hCB-1 SPA GTPγS CHO Membrane Agonist % Relative Efficacy: normalized to full agonist methanandamide, below zero = inverse agonist
T4 construct: purchased Applied Cell Sciences, Rockville, Md; host or cells: CHO cells (membranes)
T4 sequence (P21554 whole entry): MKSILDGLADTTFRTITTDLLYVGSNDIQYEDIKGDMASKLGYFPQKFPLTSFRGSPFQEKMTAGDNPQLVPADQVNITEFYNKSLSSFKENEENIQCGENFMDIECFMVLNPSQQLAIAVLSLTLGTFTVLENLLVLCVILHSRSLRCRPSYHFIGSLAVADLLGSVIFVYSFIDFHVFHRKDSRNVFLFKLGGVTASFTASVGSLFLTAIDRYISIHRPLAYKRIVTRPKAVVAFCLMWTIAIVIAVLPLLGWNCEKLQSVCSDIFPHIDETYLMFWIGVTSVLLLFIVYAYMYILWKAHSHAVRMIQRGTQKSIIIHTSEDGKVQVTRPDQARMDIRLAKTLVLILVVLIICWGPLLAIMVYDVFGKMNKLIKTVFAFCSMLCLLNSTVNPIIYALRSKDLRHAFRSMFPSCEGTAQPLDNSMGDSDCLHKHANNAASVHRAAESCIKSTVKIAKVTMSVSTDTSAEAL
Experimental: as §3
hCB1-CHO membrane, GDP (1 μM final conc.), and saponin (10 ng/mL final conc., Sigma, St Louis, Mo.) are combined and prepared on ice as for the antagonist assays, above. Diluted test compounds, GTP-γ-^35S (500 nM final conc.) and membranes are combined in the assay plate and incubated for 30 min. Then 1 mg/well Wheatgerm Agglutinin SPA beads (GE Healthcare, Piscataway, N.J.) are added, plates are sealed and vortexed and incubate for 1 hr. before spinning and counting in the same fashion as for the antagonist assays, above.
(§5) Data are analyzed as follows: Background is subtracted from all wells. Percent agonist efficacy is determine by normalizing agonist/inverse agonist dose response data to the response obtained for a full agonist (methanandamide). Percent antagonist inhibition is calculated by first normalizing the data to the signal generated by a saturating concentration of the full agonist (methanandamide). Then the data are analyzed using a 4-parameter logistic reduced fit (Activity Base™ and XLFit3™ from IDBS, Emeryville, Calif.). Kb values are determined using a modification of the Cheng-Prusoff relationship: Kb=IC50/(1+[agonist]/EC50), where “IC50” is determined from a four parameter fit of displacement curves, “[agonist]” is the agonist challenge concentration (nM), and “EC50” is determined from a four parameter fit of a full agonist concentration response curve (Cheng and Prusoff 1973). Mean Kb values are calculated as a mean of at least three independent determinations±standard error of the mean (SEM). (Cheng Y C and Prusoff W H. (1973), Biochem Pharmacol 22:3099-3108.) Exemplified compounds are found to be potent CB-1 inverse agonists (Kb≦10 nM, typically <2 nM) and to be selective over the CB-2 receptor (Kb CB-2/Kb CB-1>500, typically >1000).

[6] = target: T4, hCB-1; experiment: hCB1-CHO antagonist mode SPA GTP-γ-35S binding assay; format: biochemical; conditions: human CB-1 CHO membranes, antagonist mode vs methanandamide; read-out: hCB-1 SPA GTPγS CHO Membrane Antagonist Kb
Experimental: as §3, §4
hCB1-CHO or rCB1-CHO membranes (Applied Cell Sciences, Rockville, Md.) and GDP (1 μM final) are added to ice cold assay buffer and homogenized. Diluted compounds, GTP-γ-^35S (500 nM final conc.) and membranes are added to wells of an assay plate and incubated for 30 min. at room temperature. Next, a mixture containing Nonidet P40 detergent (0.2% final conc.), rabbit polyclonal IgG Gαi-3 antibody (provided by Covance, Princeton, N.J.), and 1.25 mg anti-rabbit antibody scintillation proximity assay beads (GE Healthcare, Piscataway, N.J.) is added. The plates are sealed, vortexed, and incubated for an additional 2 hr. Plates are then centrifuged at 700×g for 10 min. and the radioactivity counted.
Data are analyzed as follows: Background is subtracted from all wells. […] Percent antagonist inhibition is calculated by first normalizing the data to the signal generated by a saturating concentration of the full agonist (methanandamide). Then the data are analyzed using a 4-parameter logistic reduced fit (Activity Base™ and XLFit3™ from IDBS, Emeryville, Calif.). Kb values are determined using a modification of the Cheng-Prusoff relationship: Kb=IC50/(1+[agonist]/EC50), where “IC50” is determined from a four parameter fit of displacement curves, “[agonist]” is the agonist challenge concentration (nM), and “EC50” is determined from a four parameter fit of a full agonist concentration response curve (Cheng and Prusoff 1973). Mean Kb values are calculated as a mean of at least three independent determinations±standard error of the mean (SEM). […]

[7] = target: T1, hCB-2; experiment: hCB2-Sf9 agonist mode SPA GTP-γ-35S binding assay; format: biochemical; conditions: human CB-2 Sf9 membranes, read-out: hCB-2 SPA GTPγS Sf9 Membrane Agonist Relative EC50
Experimental: as §3
The hCB2-5f9 assay is run essentially as for the hCB1-sf9 and hCB2-sf9 antagonist assays above, with no challenging agonist added. 1 μM (final conc.) GDP is added to the membrane solution and nonidet P40, anti-Gi-antibody, and SPA bead are added together in a cocktail.
as §5

[8] = target: T5, CYP2C9 (Homo sapiens, UniProt P11712); experiment: Human CYP fingerprinting, sulfaphenazole inhibitor; format: in vitro ADME; conditions: 4 μM, human liver microsomes, 30 min, sulfaphenazole 5 μM
T5 construct: pooled, mixed gender, human liver microsomes; from tissue; host or cells: pooled, mixed gender human liver microsomes
T5 sequence (P11712 whole entry): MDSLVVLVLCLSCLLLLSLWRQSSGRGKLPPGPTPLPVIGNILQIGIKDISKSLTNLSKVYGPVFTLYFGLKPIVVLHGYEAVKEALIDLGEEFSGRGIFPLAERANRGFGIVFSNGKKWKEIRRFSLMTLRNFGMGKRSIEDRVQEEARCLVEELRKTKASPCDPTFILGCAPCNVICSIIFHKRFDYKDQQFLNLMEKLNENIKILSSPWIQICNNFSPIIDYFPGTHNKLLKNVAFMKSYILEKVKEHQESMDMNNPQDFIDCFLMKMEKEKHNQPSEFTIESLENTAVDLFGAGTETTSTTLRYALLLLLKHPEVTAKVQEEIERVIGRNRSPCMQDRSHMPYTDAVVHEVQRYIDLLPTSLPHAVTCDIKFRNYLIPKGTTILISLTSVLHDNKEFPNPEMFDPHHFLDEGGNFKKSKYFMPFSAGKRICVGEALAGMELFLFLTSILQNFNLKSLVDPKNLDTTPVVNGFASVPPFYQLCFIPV
Experimental: as §1, §2

| Kb [2] [nM] | Kb [3] [nM] | EC50 [5] [nM] | hCB-1 SPA GTPγS CHO Membrane Agonist % Relative Efficacy [5] [%] | Kb [6] [nM] | EC50 [7] [nM] | SMILES | Risk of Drug Drug Interaction (DDI) CYP3A [1] | Risk of Drug Drug Interaction (DDI) CYP2D6 [4] | Risk of Drug Drug Interaction (DDI) CYP2C9 [8] |
| --- | --- | --- | --- | --- | --- | --- | --- | --- | --- |
| 397 | 0.195 | 1.11 | −107 | 0.916 | 379 | CC(C)(N[C@@H]1C[C@H](c2cccc(F)c2)N(c2ccc(OC(F)(F)F)cc2)C1=O)c1ccnc(C(F)(F)F)n1 [Example 3, (3R,5R)-3-[1-Methyl-1-(2-trifluoromethyl-pyrimidin-4-yl)-ethylamino]-5-(3-fluoro-phenyl)-1-(4-trifluoromethoxy-phenyl)-pyrrolidin-2-one] | low (a reduction in metabolite peak area of less than 30% (relative to the uninhibited control incubation) receives a designation of low risk of Drug Drug Interaction (DDI)) | low (a reduction in metabolite peak area of less than 30% (relative to the uninhibited control incubation) receives a designation of low risk of Drug Drug Interaction (DDI)) | low (a reduction in metabolite peak area of less than 30% (relative to the uninhibited control incubation) receives a designation of low risk of Drug Drug Interaction (DDI)) |
| 288 | 0.176 | 2.52 | −105 | 0.83 | 288 | CC(C)(N[C@@H]1C[C@H](c2ccccc2)N(c2ccc(OC(F)(F)F)cc2)C1=O)c1ccnc(C(F)(F)F)n1 [Example 4] | low (a reduction in metabolite peak area of less than 30% (relative to the uninhibited control incubation) receives a designation of low risk of Drug Drug Interaction (DDI)) | low (a reduction in metabolite peak area of less than 30% (relative to the uninhibited control incubation) receives a designation of low risk of Drug Drug Interaction (DDI)) | low (a reduction in metabolite peak area of less than 30% (relative to the uninhibited control incubation) receives a designation of low risk of Drug Drug Interaction (DDI)) |
| – | – | – | – | – | – | CC(C)(N[C@@H]1C[C@H](c2cccc(OC(F)(F)F)c2)N(c2ccc(C(F)(F)F)cc2)C1=O)c1ccnc(C(F)(F)F)n1 [Example 6, (3R,5R)-3-[1-Methyl-1-(2-trifluoromethyl-pyrimidin-4-yl)-ethylamino]-5-(3-trifluoromethoxy-phenyl)-1-(4-trifluoromethyl-phenyl)-pyrrolidin-2-one adipate] | low (a reduction in metabolite peak area of less than 30% (relative to the uninhibited control incubation) receives a designation of low risk of Drug Drug Interaction (DDI)) | low (a reduction in metabolite peak area of less than 30% (relative to the uninhibited control incubation) receives a designation of low risk of Drug Drug Interaction (DDI)) | – |
